The data set in a line: in vitro. The data set is classed as in vitro ADME, human. The procedure:
For several compounds only human liver microsomal stability was tested. […] The microsomal assays were carried out with and without the addition of NADPH at a final concentration of 1 mM. For negative control samples, NADPH reagent was not added. […] Note that compounds undergo only Phase I metabolism in liver microsomes.

[1] abbreviates: human liver microsomes 0.5 mg/mL, with NADPH, compound 0.5 μM, 37° C., read-out: Human Liver Microsomal Stability t1/2.
Setting [2] is: human liver microsomes 0.5 mg/mL, with NADPH, compound 0.5 μM, read-out: Human Liver Microsomal Stability CLint (uL/min/mg liver) (converted).
Setting [3] is: human liver microsomes, no NADPH, compound 0.5 μM.

Where two headings read alike, the source gives them in different places.

The text below walks through data of US20250034201A1, “PRODRUGS OF GANAXOLONE” (priority 2022, published 2025).

In the case of `CC(=O)[C@H]1CC[C@H]2[C@@H]3CC[C@H]4C[C@](C)(OC(=O)CSCCN)CC[C@]4(C)[C@H]3CC[C@]12C` [Compound 302], the “Comments: production of GNX (ganaxolone) in human liver microsomes” value (“Comments: production of GNX (ganaxolone)” for short) (human liver microsomes) is “In human GNX not produced”. Besides, for the setting “human, microsomes”, the half-life amounted to 248 min; the microsomal CLint is 5.59 µL/min/mg; the “Human Liver Microsomal Stability no NADPH, % remain 1 h” value worked out at 99%.

Turning to `CC(=O)[C@H]1CC[C@H]2[C@@H]3CC[C@H]4C[C@](C)(OC(=O)CC[C@H](N)C(=O)O)CC[C@]4(C)[C@H]3CC[C@]12C` [Compound 416], for the setting “human liver microsomes”, the “Comments: production of GNX (ganaxolone)” value is given as “In human no GNX produced”. For the same compound, the half-life under setting [1] amounted to 273 min. Besides, the microsomal CLint under setting [2] is 5.08 µL/min/mg. Besides, under setting [3], the “Human Liver Microsomal Stability no NADPH, % remain 1 h” value worked out at 99%.

Consider `CC(=O)[C@H]1CC[C@H]2[C@@H]3CC[C@H]4C[C@](C)(OC(=O)CN5CCC[C@H]5C(=O)OCc5ccccc5)CC[C@]4(C)[C@H]3CC[C@]12C` [Compound 128], for which, under “human liver microsomes”, the “Comments: production of GNX (ganaxolone)” value was “In human no GNX produced”. Further, the half-life under setting [1] was found to be 9 min. The microsomal CLint under setting [2] was 153 µL/min/mg. The “Human Liver Microsomal Stability no NADPH, % remain 1 h” value under setting [3] is 20%.

Turning to `CC(=O)[C@H]1CC[C@H]2[C@@H]3CC[C@H]4C[C@](C)(OC(=O)CCC(=O)OCCN(C)C)CC[C@]4(C)[C@H]3CC[C@]12C` [Compound 409], the “Comments: production of GNX (ganaxolone)” value (human liver microsomes) was “In human small amount of GNX produced”. Further, under “human, microsomes”, the half-life stood at 12.8 min; the microsomal CLint turned out to be 108 µL/min/mg; the “Human Liver Microsomal Stability no NADPH, % remain 1 h” value stood at 7%.

`COC(=O)[C@@H](NCC(=O)O[C@]1(C)CC[C@@]2(C)[C@@H](CC[C@@H]3[C@@H]2CC[C@]2(C)[C@@H](C(C)=O)CC[C@@H]32)C1)C(C)C` [Compound 108]: the “Comments: production of GNX (ganaxolone)” value (human liver microsomes) is “GNX not produced in human”. In addition, under setting [1], the half-life is 12.2 min. Moreover, the microsomal CLint under setting [2] was 114 µL/min/mg. In addition, under setting [3], the “Human Liver Microsomal Stability no NADPH, % remain 1 h” value came out at 98%.

Take `CC(=O)[C@H]1CC[C@H]2[C@@H]3CC[C@H]4C[C@](C)(OC(=O)CSC(C)(C)C(=O)NCCN(C)C)CC[C@]4(C)[C@H]3CC[C@]12C` [Compound 307]: the “Comments: production of GNX (ganaxolone)” value (human liver microsomes) is recorded as “In human no GNX produced”. Also, the half-life under setting [1] worked out at 391 min. The microsomal CLint under setting [2] was 3.55 µL/min/mg. In addition, the “Human Liver Microsomal Stability no NADPH, % remain 1 h” value under setting [3] was 99%.

Consider `CC(=O)[C@H]1CC[C@H]2[C@@H]3CC[C@H]4C[C@](C)(OC(=O)CNC(C)(C)CO)CC[C@]4(C)[C@H]3CC[C@]12C` [Compound 132], for which, where the note is “human, microsomes”, the half-life stood at 11.7 min; the microsomal CLint was determined as 118 µL/min/mg; the “Human Liver Microsomal Stability no NADPH, % remain 1 h” value is reported as 1%.

Take `COC(=O)C(C)(C)NCC(=O)O[C@]1(C)CC[C@@]2(C)[C@@H](CC[C@@H]3[C@@H]2CC[C@]2(C)[C@@H](C(C)=O)CC[C@@H]32)C1` [Compound 125]: the half-life under setting [1] came to 3.9 min. Moreover, the microsomal CLint under setting [2] was 354 µL/min/mg. Under setting [3], the “Human Liver Microsomal Stability no NADPH, % remain 1 h” value is given as 1%.

For `CC(=O)OCCCN(CCCOC(C)=O)CC(=O)OC(C)(C)C(=O)OCC(=O)O[C@]1(C)CC[C@@]2(C)[C@@H](CC[C@@H]3[C@@H]2CC[C@]2(C)[C@@H](C(C)=O)CC[C@@H]32)C1` [Compound 237], for the setting “human, microsomes”, the half-life came out at 5.18 min; the microsomal CLint was found to be 267 µL/min/mg; the “Human Liver Microsomal Stability no NADPH, % remain 1 h” value is under 1%.

Consider `CC(=O)[C@H]1CC[C@H]2[C@@H]3CC[C@H]4C[C@](C)(OC(=O)CNCC(=O)O)CC[C@]4(C)[C@H]3CC[C@]12C` [Compound 124], for which the “Comments: production of GNX (ganaxolone)” value (human liver microsomes) is recorded as “In human small amount of GNX produced”. The half-life under setting [1] was 532 min. The microsomal CLint under setting [2] is 2.61 µL/min/mg. Further, the “Human Liver Microsomal Stability no NADPH, % remain 1 h” value under setting [3] is given as 99%.
